Measured values from patent US11613531B2, “Inhibitors of RHO associated coiled-coil containing protein kinase” (Kadmon Corporation, LLC, priority 2017, dated 2023).
Like-named read-outs stand apart in the source and are kept apart here.

Key:
[1] = system: human ACTA2 gene promoter luciferase reporter in NIH3T3 cells; assay: NIH3T3 Acta2-promoter driven-luciferase assay; assay type: cell-based; details: NIH3T3, 24 h, read-out: NIH3T3 Acta2-luc, IC50
Description: NIH3T3 Cells Acta2-Promoter Driven-Luciferase Assay.
A NIH3T3 cell line stably expressing a luciferase reporter driven by the human ACTA2 gene promoter (−1000-1 bp) was established (NIH3T3-Acta2-luciferase). The cells were plated to confluence and treated with the test compounds plus TGFβ1 for 24 hr. Cells were then lysed and luciferase activity was measured using the LightSwitch luciferase kit from Active Motif.
In vitro activities for the compounds were measured with Z′-lyte kinase kit (ThermoFisher Scientific). The percent inhibition rate was calculated by normalizing the kinase activity value obtained with 1 μM compound treatment against DMSO control value and then applied to the formula, [1-(compound/DMSO)]×100%. IC50s were calculated using the nonlinear regression curve fit function of the GraphPad Prism software with kinase activities data measured with 9 points 2-fold serial dilution of compounds treatment. In cell pMLC IC50s were calculated with data obtained from A7R5 cell experiments. A7R5 cells were treated with 9 points 2-fold serial dilution of compounds and ppMlc (T18/S19) levels were determined to calculate cellular IC50 values of the compounds using the nonlinear regression curve fit function of the GraphPad Prism software. NIH3T3 cells stably expressing ACTA2-promoter-driven-luciferase were applied to measure ROCK compounds functional IC50s in cells. Cells were plated in 96 well plates to confluence and treated with 9 points serial dilution of compounds in combination with TGFβ1 for 24 hr. Luciferase activities were measured and compound's IC50s were calculated using the nonlinear regression curve fit function of the GraphPad Prism software.
ROCK inhibitors can be effectively rank ordered by ACTA2-promoter-driven-luciferase reporter cell assay. NIH3T3 cells stably expressing ACTA2-promoter-driven-luciferase were plated in 96 well plates to confluence and treated with 9 points serial dilution of compounds in combination with TGFβ1 for 24 hr. Luciferase activities were measured and compound's IC50s were calculated. By this assay multiple compounds of the invention gave IC50s under 200 nM.

[2] = biological target: Recombinant ROCK2 (amino acids 1-552) (Homo sapiens (Human), UniProt O75116); assay: Z′-Lyte kinase assay, ROCK2; assay type: biochemical; details: for inhibition at 0.5 µM: 0.5 μM compound; for inhibition at 0.5 µM / inhibition at 1 µM: read-out: ROCK2 % inh. @ [conc]; for inhibition at 1 µM: 1 μM compound
Recombinant ROCK2 (amino acids 1-552), sequence (O75116 1-552): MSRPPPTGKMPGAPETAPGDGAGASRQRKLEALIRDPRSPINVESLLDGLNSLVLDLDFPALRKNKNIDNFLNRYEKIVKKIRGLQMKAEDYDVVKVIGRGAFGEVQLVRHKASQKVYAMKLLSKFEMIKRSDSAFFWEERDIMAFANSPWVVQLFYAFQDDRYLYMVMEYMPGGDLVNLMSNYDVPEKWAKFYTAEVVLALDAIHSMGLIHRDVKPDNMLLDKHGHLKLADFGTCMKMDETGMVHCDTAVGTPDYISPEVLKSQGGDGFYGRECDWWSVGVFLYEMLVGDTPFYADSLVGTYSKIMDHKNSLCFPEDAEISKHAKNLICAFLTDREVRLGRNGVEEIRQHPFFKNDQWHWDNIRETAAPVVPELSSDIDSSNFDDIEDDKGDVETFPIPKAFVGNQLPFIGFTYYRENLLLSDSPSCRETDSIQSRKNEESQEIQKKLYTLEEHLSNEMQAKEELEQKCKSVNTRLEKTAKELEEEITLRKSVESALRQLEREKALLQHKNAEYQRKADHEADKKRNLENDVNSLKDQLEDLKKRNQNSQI
In short: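 IC50s derive from nonlinear curve fits over a 9-point, 2-fold dilution series, with single-point inhibition at 1 μM expressed relative to DMSO. Activity of truncated human ROCK1 (residues 1-535) and ROCK2 (residues 1-552) measured with the Z′-Lyte kinase format.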

[3] = system: ppMlc (T18/S19) levels in A7R5 cells; assay: A7R5 in-cell ELISA (pMLC); assay type: cell-based, Rat; details: Rattus norvegicus, A7R5, A7R5 cells; for inhibition at 1 µM: 1 μM compound, read-out: pMLC % inh A7R5 @ [conc]
In short: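 Cellular IC50 came from a nonlinear regression fit of ppMlc (T18/S19) signal, read by colorimetric in-cell ELISA on fixed cells. Rat A7R5 aortic smooth muscle cells had been exposed for 90 min to compounds in 9-point 2-fold serial dilution, 24 h after seeding.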

[4] = NIH3T3 cells, plus TGFβ1 for 24 hr
[5] = 9 points 2-fold serial dilution

inhibition at 1 µM [2] [%] | SMILES | IC50 ([1]; with TGFβ1, 24 hr) [µM] | IC50 [2] [µM] | IC50 [3] [nM] | inhibition at 0.5 µM [2] [%] | inhibition at 1 µM [3] [%] | IC50 [1, 4] [µM] | IC50 [2, 5] [µM] | IC50 ([3]; ppMlc (T18/S19)) [nM]
 | c1cc2[nH]ncc2cc1Nc1nc(N2C3CNCC2C3)nc2c1CNC2 [Example 310, 2-(3,6-diazabicyclo[3.1.1]heptan-6-yl)-N-(1H-indazol-5-yl)-6,7-dihydro-5H-pyrrolo[3,4-d]pyrimidin-4-amine] | > 5 | 0.0038 | > 5000 |  |  |  |  | 
 | FC(F)(F)c1nc(N2C3CCC2CNC3)nc(Nc2ccc3[nH]ncc3c2)c1Cl [Example 340, N-(2-(3,8-diazabicyclo[3.2.1]octan-8-yl)-5-chloro-6-(trifluoromethyl)pyrimidin-4-yl)-1H-indazol-5-amine] | 0.894 | 0.02 | 362 |  |  |  |  | 
 | CN1CCc2nc(N3C4CCC3CNC4)nc(Nc3ccc4[nH]ncc4c3)c2C1 [Example 299, 2-(3,8-diazabicyclo[3.2.1]octan-8-yl)-N-(1H-indazol-5-yl)-6-methyl-5,6,7,8-tetrahydropyrido[4,3-d]pyrimidin-4-amine] | > 10 | 0.034 | 1200 | 70 |  |  |  | 
 | CCN(C)c1cc(Nc2ccc3[nH]ncc3c2)nc(N2C3CCC2CNC3)n1 [Example 332, 2-(3,8-diazabicyclo[3.2.1]octan-8-yl)-N4-ethyl-N6-(1H-indazol-5-yl)-N4-methylpyrimidine-4,6-diamine] | 0.08 | 0.0012 | 18 |  |  |  |  | 
 | FC(F)(F)c1cnc(N2C3CCC2CNC3)nc1Nc1ccc2[nH]ncc2c1 [Example 298, N-(2-(3,8-diazabicyclo[3.2.1]octan-8-yl)-5-(trifluoromethyl)pyrimidin-4-yl)-1H-indazol-5-amine] | > 5 | 0.075 | 1520 |  |  |  |  | 
 | Cc1c(C#N)nc(N2C3CCC2CNC3)nc1Nc1ccc2[nH]ncc2c1 [Example 333, 6-((1H-indazol-5-yl)amino)-2-(3,8-diazabicyclo[3.2.1]octan-8-yl)-5-methylpyrimidine-4-carbonitrile] | 1.6 | 0.044 | 577 |  |  |  |  | 
 | Fc1cnc(N2C3CCC2CNC3)nc1Nc1ccc2[nH]ncc2c1 [Example 221, N-(2-(3,8-diazabicyclo[3.2.1]octan-8-yl)-5-fluoropyrimidin-4-yl)-1H-indazol-5-amine] |  |  |  |  | 39.6 | 0.243 | 0.0037 | 50
 | FC(F)(F)c1cc(Nc2ccc3[nH]ncc3c2)nc(N2C3CCC2CNC3)n1 [Example 341, N-(2-(3,8-diazabicyclo[3.2.1]octan-8-yl)-6-(trifluoromethyl)pyrimidin-4-yl)-1H-indazol-5-amine] | 0.058 | 0.0058 | 27 |  |  |  |  | 
 | COc1cc2[nH]ncc2cc1Nc1nc(N2C3CNCC2C3)ncc1Cl [Example 297, N-(2-(3,6-diazabicyclo[3.1.1]heptan-6-yl)-5-chloropyrimidin-4-yl)-6-methoxy-1H-indazol-5-amine] | 3.79 | 0.084 | 1430 | 87 |  |  |  | 
 | c1cc2[nH]ncc2cc1Nc1nc(N2C3CNCC2C3)ncc1C1CC1 [Example 308, N-(2-(3,6-diazabicyclo[3.1.1]heptan-6-yl)-5-cyclopropylpyrimidin-4-yl)-1H-indazol-5-amine] | 1.24 | 0.015 | 377 |  |  |  |  | 
 | CC1CNCCN1c1ncc(F)c(Nc2ccc3[nH]ncc3c2)n1 (stereo not shown) [Example 216, N-(5-fluoro-2-(2-methylpiperazin-1-yl)pyrimidin-4-yl)-1H-indazol-5-amine] |  |  |  |  | 42.6 | 1.38 | 0.07 | 517
 | Cc1nc(N2C3CCC2CNC3)nc(Nc2ccc3[nH]ncc3c2)c1C#N [Example 343, 4-((1H-indazol-5-yl)amino)-2-(3,8-diazabicyclo[3.2.1]octan-8-yl)-6-methylpyrimidine-5-carbonitrile] | 0.223 | 0.0056 | 127 |  |  |  |  | 
99.1 | Fc1cnc(N2CCC3NCC3C2)nc1Nc1ccc2[nH]ncc2c1 (stereo not shown) [Example 170, N-(2-(3,7-diazabicyclo[4.2.0]octan-3-yl)-5-fluoropyrimidin-4-yl)-1H-indazol-5-amine] | 0.572 | 0.027 | 274 |  | 31.5 |  |  | 
 | COc1cc2[nH]ncc2cc1Nc1nc(N2C3CCC2CNC3)ncc1Cl [Example 305, N-(2-(3,8-diazabicyclo[3.2.1]octan-8-yl)-5-chloropyrimidin-4-yl)-6-methoxy-1H-indazol-5-amine] | 3.81 | 0.16 | 1410 | 83 |  |  |  | 
 | c1cc2[nH]ncc2cc1Nc1nc(N2C3CCC2CNC3)ncc1C1CC1 [Example 309, N-(2-(3,8-diazabicyclo[3.2.1]octan-8-yl)-5-cyclopropylpyrimidin-4-yl)-1H-indazol-5-amine] | 3.33 | 0.117 | 917 |  |  |  |  | 
 | CN(C)c1nc(N2C3CCC2CNC3)nc(Nc2ccc3[nH]ncc3c2)c1F [Example 342] | 1.95 | 0.0001 | 26 |  |  |  |  | 
101 | Cc1cc(Nc2ccc3[nH]ncc3c2)nc(N2CC3CNC(C3)C2)n1 (stereo not shown) [Example 129, N-(2-(3,6-diazabicyclo[3.2.1]octan-3-yl)-6-methylpyrimidin-4-yl)-1H-indazol-5-amine] | 2.92 | 0.018 | 377 |  | 50.6 |  |  | 
 | CN(C)c1nc(N2C3CCC2CNC3)nc(Nc2ccc3[nH]ncc3c2)c1Cl [Example 344, 2-(3,8-diazabicyclo[3.2.1]octan-8-yl)-5-chloro-N^4-(1H-indazol-5-yl)-N^6,N^6-dimethylpyrimidine-4,6-diamine] | 0.192 | 0.0017 | 82 |  |  |  |  | 
99.5 | Fc1cnc(N2CCC3CNCC3CC2)nc1Nc1ccc2[nH]ncc2c1 (stereo not shown) [Example 169, N-(5-fluoro-2-(octahydropyrrolo[3,4-d]azepin-6(1H)-yl)pyrimidin-4-yl)-1H-indazol-5-amine] | 1.83 |  | 395 |  | 30.9 |  |  | 
 | CCOC(=O)[C@H]1N[C@@H]2C[C@@H]1CN(c1ncc(Cl)c(Nc3ccc4[nH]ncc4c3)n1)C2 (stereo in doubt) [Example 326, Ethyl 3-(4-((1H-indazol-5-yl)amino)-5-chloropyrimidin-2-yl)-3,6-diazabicyclo[3.2.1]octane-7-carboxylate] | > 10 | 0.305 | 6290 | 64 |  |  |  | 
 | c1cc(Nc2ccc3[nH]ncc3c2)nc(N2CC[C@@H]3NC[C@@H]3C2)n1 [Example 82, N-(2-((1R,6S)-3,7-diazabicyclo[4.2.0]octan-3-yl)pyrimidin-4-yl)-1H-indazol-5-amine] | 3.42 | 0.012 | 572 |  | 42.5 |  |  | 
 | c1cc2[nH]ncc2cc1Nc1nc(N2C3CNCC2C3)nc2c1COCC2 [Example 307, 2-(3,6-diazabicyclo[3.1.1]heptan-6-yl)-N-(1H-indazol-5-yl)-7,8-dihydro-5H-pyrano[4,3-d]pyrimidin-4-amine] | 2.05 | 0.0026 | 977 |  |  |  |  | 
100 | Fc1cnc(N2CC3CNC(C3)C2)nc1Nc1ccc2[nH]ncc2c1 (stereo not shown) [Example 166, N-(2-(3,6-diazabicyclo[3.2.1]octan-3-yl)-5-fluoropyrimidin-4-yl)-1H-indazol-5-amine] | 2.04 |  | 259 |  | 34.3 |  |  | 

SMILES | inhibition at 1 µM [2] [%] | IC50 ([1]; with TGFβ1, 24 hr) [µM] | IC50 [2] [µM] | IC50 [3] [nM] | inhibition at 0.5 µM [2] [%] | inhibition at 1 µM [3] [%] | IC50 [1, 4] [µM] | IC50 [2, 5] [µM] | IC50 ([3]; ppMlc (T18/S19)) [nM]
Clc1cnc(N2C3CNCC2C3)nc1Nc1ccc2[nH]ncc2c1 [Example 222, N-(2-(3,6-diazabicyclo[3.1.1]heptan-6-yl)-5-chloropyrimidin-4-yl)-1H-indazol-5-amine] | 102 | 0.52 | 0.0049 | 122 |  | 58.2 |  |  | 
Cc1cc(Nc2ccc3[nH]ncc3c2)nc(N2CC3CC2CN3)n1 (stereo not shown) [Example 211, N-(2-(2,5-diazabicyclo[2.2.1]heptan-2-yl)-6-methylpyrimidin-4-yl)-1H-indazol-5-amine] | 104 |  |  |  |  | 35.8 | 0.437 |  | 66
